Marks after values point to notes of the source that are not given here.
Assays:
Assay type in all cases: in vivo
[1] = tested on: guinea pig model of asthma; assay: Guinea pig model of asthma (OVA)
Guinea-pig anaphylaxis = Guinea-pig anaphylaxis model (OVA); settings: for % of the animals died (anaphylaxis): 5 mg/kg intranasal 30 min prior to OVA
Description: Guinea-pig anaphylaxis has for many years been considered the classical example of anaphylaxis, in contrast to other species (e.g. mice) that completely lack anaphylactic responses after allergen inhalation. Anaphylactic shock is believed to be due to liberation of histamine with subsequent contraction of smooth muscle after the inhalation of antigen into the airway and lungs. Contraction of the bronchial musculature completely shuts off the alveoli and prevents exhalation of air, and the animals die of asphyxia. In guinea-pigs allergen doses that are high enough to produce a significant late-phase responses (i.e. cellular eosinophilia, late phase exudation) inevitably also give rise to prior strong acute reactions that are so intense that some animals may die in acute airway constriction.
In this model the guinea pigs were sensitized to ovalbumin (OVA) twice (on days 0 and 7) by an intraperitoneal injection of 0.5 mL saline containing 100 mg Al(OH)3 and 2 μg OVA. Three weeks after the last sensitization, animals were anaesthetized and the exposure of the nasal cavity to allergen was performed by dropping OVA solution at 2 mg/mL into bilateral nasal cavities (20 μl per nasal cavity). For the negative control the animals received sensitization and challenge with saline. The animals are pretreated with either vehicle or drug (anionic oligosaccharide conjugates or Budesonide) 30 min prior to intranasal instillation of OVA. Vehicle or drugs are administered, 25 μl-50 μl/nostril. A comparison of the anionic oligosaccharide conjugates with Budesonide, as the reference compound, is included. In this study Budesonide at 0.65 mg/kg was not effective at preventing anaphylaxis as 70% of the animals in this group died by acute airway constriction.

[2] = tested on: allergic rhinitis model in the guinea pig; assay: Allergic rhinitis model in the guinea pig (OVA); settings: for % inhibition of protein content of the nasal lavage fluid (plasma exudation): 5 mg/kg intranasal 30 min before OVA, 8 hours after challenge; for eosinophil and neutrophil infiltration into nasal lavage fluid: 5 mg/kg, 8 hours after challenge (FIG. 3)
mouse model of emphysema = assay: Mouse model of emphysema / COPD (cigarette smoke)
Experimental: A mouse model of emphysema was used. Acute or chronic exposure of mice to cigarette smoke lead to lung responses that in part mimic the inflammatory and structural changes observed in COPD. In this model male C57Bl/6J mice are subjected to acute or chronic smoke exposure, with normal room air being the control situation. In the acute study mice were exposed to either room air or to the smoke of five cigarettes (approximately 12 mg of tar and 0.9 mg of nicotine) for 20 minutes. In the chronic study mice were exposed to either room air or to the smoke of three cigarettes/day for 5 days/week for 6 months. The 4 groups of mice were then further divided so that mice within each group also received various anionic oligosaccharide conjugates via an inhaled route.
In the acute exposure groups of mice anionic oligosaccharide conjugates were given 30 minutes before exposure to cigarette smoke. Assessment of the efficacy of the drug for mice in the acute exposure groups involved assessment of trolox equivalent anti-oxidant capacity of the bronchoalveolar lavage fluid (BALF) at the end of smoke exposure. The BALF was examined for cytokines and chemokines that are associated with an inflammatory response. The levels of these agents were determined at 4 hours after exposure and at 24 hours after cigarette smoke exposure. A range of cytokines and chemokines was measured. These included: IL-1α, IL-1β, IL-2, IL-3, IL-4, IL-5, IL-6, IL-10, IL-12, RANTES, MIP-1α, cytokine-induced neutrophil chemoattractant (KC), TNF-α and IFN-γ). A differential cell count of the cells in the BALF was also determined.
The animals in the chronic study received the anionic oligosaccharide conjugates (including ID 9) once a day for the duration of the experiment. At the completion of the experiment animals were killed and the lungs fixed intratracheally with formalin (5%) and lung volume was measured by water displacement. […] The level of desmosine in the lung tissue was also determined. […]

[3] = tested on: rat model of acute lung injury and ADRS; assay: Rat model of acute lung injury and ARDS (LPS); settings: intra-tracheal 0.5 and 2.5 mg/kg, 30 minutes before LPS
Description: A rat model of acute lung injury and ADRS was used (Jansson, Lung 182:1-9, 2004). The model is based on the understanding that endotoxin found in common pathogens (e.g. bacteria) can lead to the development of ARDS, septic shock and multiple organ dysfunction syndrome in the clinical situation. Lipopolysaccharide (LPS), a component of the outer membrane of gram-negative bacteria is the prototypical example of endotoxin and exposure of the respiratory tract of rats to LPS can be used as a model of acute lung inflammation and ARDS. […]
Excised lung gas volume (ELGV) is measured by Archimedes' principle and is based on the stable amount of air trapped within the excised lungs at a transpulmonary pressure of 0 cmH2O. […] A density determination kit (P3000, Mettler-Toledo GmbH, Sweden) and optional density determination software for the balance were used on the basis of the principle that every solid body immersed in fluid loses weight, and is expressed as g/cm^3. […] ELGV is determined by the difference between bracket weight and lung buoyancy in the liquid. […] Indication of lung tissue edema was calculated by the difference between lung tissue weight outside the beaker and bracket weight. The lung tissue density was determined by the ratio of the lung weight (difference between lung tissue weight outside the beaker and holder weight) and the air volume within the lung (ELGV). […]

[4] = 0.1 mg/kg pretreatment (FIG. 5)
[5] = drug 0.1 mg/kg intra-tracheal, MCh (10 mg/mL)
[6] = drug 0.1 mg/kg intra-tracheal, MCh (30 mg/mL)
[7] = drug 2.5 mg/kg intra-tracheal, MCh (10 mg/mL)
[8] = drug 2.5 mg/kg intra-tracheal, MCh (30 mg/mL)

Row | Molecule | inhibition of OVA induced leukocyte influx in BAL [1, 4] [%] | AHR: Cdyn, % increase from that of the positive control [1, 5] [%**] | AHR: RL, % inhibition from that of the positive control [1, 5] | AHR: Cdyn, % increase from that of the positive control [1, 6] [%**] | AHR: RL, % inhibition from that of the positive control [1, 6] [%**] | AHR: Cdyn, % increase from that of the positive control [1, 7] | AHR: RL, % inhibition from that of the positive control [1, 7] | AHR: Cdyn, % increase from that of the positive control [1, 8] [%**] | AHR: RL, % inhibition from that of the positive control [1, 8] [%**] | % of the animals died by acute airway constriction (Guinea-pig anaphylaxis; 0.65 mg/kg intranasal 30 min prior to OVA) [%] | % inhibition of protein content of the nasal lavage fluid (plasma exudation) [2] [%] | eosinophil and neutrophil infiltration into nasal lavage fluid [2] | inhibition of OVA induced leukocyte influx in BAL ([1]; 2.5 mg/kg pretreatment (FIG. 5)) [%] | antigen induced elevated protein content of BAL ([1]; even at 0.1 mg/kg (FIG. 4)) | lung function: development of Cdyn and RL ([1]; methacholine evoked bronchoconstriction, 8 hours after provocation) | numbers of neutrophils in BALF (mouse model of emphysema; acute cigarette smoke exposure) | cellular infiltrate into BALF (mouse model of emphysema; acute cigarette smoke exposure, inhaled 30 minutes before exposure) | anti-inflammatory activity in COPD model (mouse model of emphysema; chronic smoke exposure, once a day) | inhibition of neutrophil infiltration (BAL) [3] | % of the animals died (anaphylaxis) (Guinea-pig anaphylaxis) [%]
1 | CCCC1O[C@@H]2C[C@H]3[C@@H]4CCC5=CC(=O)C=C[C@]5(C)[C@H]4[C@@H](O)C[C@]3(C)[C@]2(C(=O)CO)O1 (some centres unmarked) [Budesonide, reference compound] | 76 | 97.2 | 86.5%** | 116.2 | 105 | 19.7% | −89.4% | 70.9 | 98.9 | 70 | – | – | – | – | – | – | – | – | – | –
2 | (Maltopentaose)-Et4-(Maltopentaose) [ID 9] | 62 | 76.6 | 75.3%* | 90 | 84.4 | 68.7%* | 80.5%** | 128.4 | 99.5 | – | 51.5 | particularly effective at blocking not only eosinophil infiltration but also neutrophil infiltration | 85 | very effectively inhibits the elevated protein content of BAL | inhibited the development of both Cdyn and RL | significantly attenuated | decreased the cellular infiltrate into BALF | could act as anti-inflammatory agents | marked | 35
3 | (Maltopentaose)-(Et2)-(Maltopentaose) [ID 7] | – | – | – | – | – | – | – | – | – | – | 91.4 | only blocked eosinophils | – | – | – | – | – | – | – | 27

From patent publication US8597632B2, “Anionic oligosaccharide conjugates” (Glycan Biosciences LLC, priority 2008, dated 2013)
